Measured values from a compilation of properties of binary mixtures (doi:10.1016/j.fluid.2022.113559).

Assay: xn = mol fraction of the nth substance listed
Conditions: 101 kPa, x1 = 0.3333

Row | SMILES | viscosity (283.15 K) | viscosity (288.15 K) | viscosity (298.15 K) | viscosity (303.15 K) | viscosity (313.15 K) | viscosity (318.15 K) | viscosity (323.15 K) | viscosity (333.15 K) | viscosity (338.15 K) | viscosity (343.15 K) | viscosity (348.15 K) | viscosity (353.15 K) | viscosity (308.15 K) | viscosity (328.15 K)
1 | CC[n+]1ccn(C)c1.N#C[S-] + CS(C)=O | 3.95 mPa·s | 3.58 mPa·s | 2.92 mPa·s | 2.63 mPa·s | 2.12 mPa·s | 1.91 mPa·s | 1.73 mPa·s | 1.44 mPa·s | 1.34 mPa·s | 1.26 mPa·s | 1.21 mPa·s | 1.19 mPa·s |  | 
2 | CCOS(=O)(=O)[O-].CC[n+]1ccn(C)c1 + CS(C)=O | 4.35 mPa·s |  | 3.16 mPa·s | 2.83 mPa·s |  | 2.02 mPa·s | 1.82 mPa·s | 1.5 mPa·s | 1.39 mPa·s | 1.32 mPa·s |  | 1.24 mPa·s | 2.53 mPa·s | 1.64 mPa·s
